Assay results taken from patent US20120010245A1, “TRANSDERMAL PHARMACEUTICAL COMPOSITIONS COMPRISING A SERM” (BESINS HEALTHCARE LUXEMBOURG SARL, priority 2008, published 2012).
Values after ≈ are worked out from the molar mass of the structure shown. Values joined by “and” are separate entries in the source; they are usually repeats but may differ in a detail not shown here. Equal entries are not always repeated. Structures can show the parent of a compound that is named as a salt. Where two headings read alike, the source gives them in different places.

Key:
[1] = Solubility studies (saturated solubility, HPLC); type: physicochemical; conditions: for solubility: aqueous with cosolvent or surfactant or cyclodextrin, thermodynamic from solid
Protocol: (§1) The saturated solubilities of endoxifen were determined in a mixture of absolute ethanol/water (70:30, w/w) by shaking an excess amount of drug in 1 ml of the co-solvent system for at least 24 hours at room temperature. The concentrations of the saturated solutions were determined by HPLC analysis after appropriate dilution.
as §1, with “clomifene citrate” for “endoxifen”, “series” for “mixture”, “of” for “of absolute”, “mixtures (40:60, 50:50, 60:40 and 70:30,” for “(70:30,”, “0.6” for “1”, “temperature. […]” for “temperature.”
The concentrations of the saturated solutions were determined by HPLC analysis after appropriate dilution.
as §1, with “toremifene” for “endoxifen”, “series” for “mixture”, “of” for “of absolute”, “mixtures (40:60, 50:50, 60:40 and 70:30,” for “(70:30,”, “temperature. […]” for “temperature.”

[2] = Stability in analysis medium (cetrimide solution, 3%); type: physicochemical; conditions: 3% cetrimide solution
[3] = Skin permeation study in side-by-side diffusion cells; type: in vitro ADME, pig
Protocol: Skin permeation studies were carried out using opaque side-by-side diffusion cells with an effective diffusion area of 0.71 cm^2. […] The receptor solution was a 3% w/v cetrimide solution and allowed sink conditions to be maintained. The receptor phase was magnetically stirred at 100 rpm. Dermatomed abdominal pig skin (750 μm) was used. Skin was allowed to hydrate with isotonic saline solution for 1 h before the experiment was started. […] Experiments were performed under complete occlusion. Post-application, at scheduled times (1, 9, 20 and 24 hours), 1 ml samples were taken from the receiver compartment and replaced with the same volume of fresh, temperature-equilibrated receptor fluid. Samples were filtered through 0.45 μm PVDF membrane filters. The amount of endoxifen in the samples was determined by HPLC using the method described above.

[4] = Solubility studies (saturated solubility, HPLC); type: physicochemical; conditions: 3% w/v cetrimide solution, aqueous with cosolvent or surfactant or cyclodextrin, thermodynamic from solid, room temperature
[5] = ethanol/water 70:30 w/w co-solvent system, room temperature, read-out: Solubility in ethanol:water (70:30 w/w)
[6] = 1 hr, saturated solution in 70:30 w/w ethanol-water, donor 30.46 mg/mL
[7] = 1 h, saturated solution of the drug in 70:30 w/w ethanol-water, — not defined here (Table 2: below LOD)

SMILES: CC/C(=C(\c1ccc(O)cc1)c1ccc(OCCNC)cc1)c1ccccc1 [endoxifen, 4-hydroxy-N-desmethyl-tamoxifen]
- solubility [1, 5]: 38700 µg/mL (≈ 104000 µM)
- Stability in analysis medium ([2]; 24 hours): stable
- experimental permeation after 24 hours relative to in silico prediction ([3]; 37.29 μg/cm^2 versus about 0.98 μg/cm^2 in 24 hours): 40 times higher
- cumulative permeation, Mean (±SD) [3, 6]: — ((—) below the limit of detection (LOD) of 30 ng/ml.)
- cumulative permeation, single cells [3, 6]: — ((—) below the limit of detection (LOD) of 30 ng/ml.)
- cumulative permeation, Mean (±SD) ([3]; 9 hr, saturated solution in 70:30 w/w ethanol-water, donor 30.46 mg/mL): 0.31 ± 0.36 μg/cm^2
- cumulative permeation, Mean (±SD) ([3]; 20 hr, saturated solution in 70:30 w/w ethanol-water, donor 30.46 mg/mL): 17.24 ± 15.13 μg/cm^2
- solubility [4]: 6260 ± 280 µg/mL (≈ 16800 µM)

SMILES: CC/C(=C(/c1ccc(OCCN(C)C)cc1)c1cccc(O)c1)c1ccccc1 [droloxifene citrate, 3-[(1E)-1-[4-[2-(Dimethylamino)ethoxy]phenyl]-2-phenyl-1-butenyl]phenol]
- solubility [1, 5]: 47400 ± 1700 µg/mL
- Stability in analysis medium ([2]; 24 hours): stable
- cumulative permeation, Mean (±SD) ([3]; 20 h, saturated solution in 70:30 w/w ethanol-water, donor 45.93±[…]): 0.62 ± 0.37 μg/cm^2
- solubility ([4]; n=2): 8900 ± 200 µg/mL

SMILES: CCC(=C(c1ccc(O)cc1)c1ccc(OCCN(C)C)cc1)c1ccccc1 [4-OH Tamoxifen, 1-[4-(2-N-dimethylaminoethoxy)phenyl]-1-(4-hydroxyphenyl)-2-phenylbut-1-ene]
- Stability in analysis medium ([2]; 30 hours): stable
- cumulative permeation, single cells ([3]; 9 hr, saturated solution in 70:30 v/v ethanol-water, — not defined here (Table 2: below LOD)): 4.1 μg/cm^2 and 3.3 μg/cm^2
- cumulative permeation, Average (±SD) ([3]; 20 hr, saturated solution in 70:30 v/v ethanol-water): 8.3 ± 4.7 μg/cm^2
- cumulative permeation, Average (±SD) ([3]; 24 hr, saturated solution in 70:30 v/v ethanol-water): 12.5 ± 6.3 μg/cm^2
- cumulative permeation, Average (±SD) ([3]; 24 hr, saturated solution in 70:30 v/v ethanol-water, listed as 4-OH tamoxifen): 12.5 μg/cm^2

SMILES: CN(C)CCOc1ccc(/C(=C(/CCCl)c2ccccc2)c2ccccc2)cc1 [toremifene]
- solubility ([1]; 3% w/v cetrimide solution, room temperature, read-out: Solubility in 3% cetrimide solution): 302 ± 14 µg/mL (≈ 744 µM)
- Saturated solubility, Expt 1-3 ([1]; EtOH:Water 40:60 w/w, single experiments): 75.4 µg/mL and 74 µg/mL
- Saturated solubility, Expt 1-3 ([1]; EtOH:Water 50:50 w/w, single experiments): 333 µg/mL and 324 µg/mL
- Saturated solubility, Expt 1-3 ([1]; EtOH:Water 60:40 w/w, single experiments): 1063 µg/mL and 1009 µg/mL
- Saturated solubility, Expt 1-3 ([1]; EtOH:Water 70:30 w/w, single experiments): 2698 µg/mL and 2623 µg/mL
- solubility ([1]; ethanol/water 40:60 w/w co-solvent system, EtOH:Water 40:60 w/w, n=3, read-out: Saturated solubility, Average concentration ± SD): 74.7 ± 1.1 µg/mL (≈ 184 µM)
- solubility ([1]; ethanol/water 40:60 w/w co-solvent system, EtOH:Water 40:60 w/w, single experiments, read-out: Saturated solubility, Expt 1-3): 74.8 µg/mL (≈ 184 µM)
- solubility ([1]; ethanol/water 50:50 w/w co-solvent system, EtOH:Water 50:50 w/w, n=3, read-out: Saturated solubility, Average concentration ± SD): 335 ± 15 µg/mL (≈ 825 µM)
- solubility ([1]; ethanol/water 50:50 w/w co-solvent system, EtOH:Water 50:50 w/w, single experiments, read-out: Saturated solubility, Expt 1-3): 350 µg/mL (≈ 862 µM)
- solubility ([1]; ethanol/water 60:40 w/w co-solvent system, EtOH:Water 60:40 w/w, n=3, read-out: Saturated solubility, Average concentration ± SD): 1050 ± 37 µg/mL (≈ 2600 µM)
- solubility ([1]; ethanol/water 60:40 w/w co-solvent system, EtOH:Water 60:40 w/w, single experiments, read-out: Saturated solubility, Expt 1-3): 1090 µg/mL (≈ 2680 µM)
- solubility ([1]; ethanol/water 70:30 w/w co-solvent system, EtOH:Water 70:30 w/w, n=3, read-out: Saturated solubility, Average concentration ± SD): 2730 ± 124 µg/mL (≈ 6720 µM)
- solubility ([1]; ethanol/water 70:30 w/w co-solvent system, EtOH:Water 70:30 w/w, single experiments, read-out: Saturated solubility, Expt 1-3): 2860 µg/mL (≈ 7050 µM)
- Stability in analysis medium ([2]; 24 hours): stable
- cumulative permeation, Mean (±SD) [3, 7]: 3.38 μg/cm^2
- cumulative permeation, single cells [3, 7]: 3.38 μg/cm^2
- cumulative permeation, Mean (±SD) ([3]; 9 h, saturated solution of the drug in 70:30 w/w ethanol-water, — not defined here (Table 2: below LOD)): 1.53 ± 2.6 μg/cm^2
- cumulative permeation, Mean (±SD) ([3]; 20 h, saturated solution of the drug in 70:30 w/w ethanol-water): 3.89 ± 3.2 μg/cm^2
